Tests used:
[1] = test system: heart rate; test: Bradycardiac test: effect of test compound on the heart rate of anesthetized cats; format: in vivo
Method: The effect of the test compound on the heart rate was tested at various dosage levels on 2-4 cats of both sexes per dose. The average body weight of the cats was 2.5-3.5 kg. For this purpose the animals were anesthetized with nembutal (30 mgm/kg i.p.) and chloralose-urethane (40 mgm/ml chloralose + 200 mgm/ml urethane as required). The test compound in aqueous solution was injected into the Vena saphena (i.v.) or duodenum (i.p.).
The heart rate was registered before and after administration of the test compound on a Grass-polygraph by means of a Grass-tachograph from the electrocardiogram (precordial lead).

[2] = LD50 in mice, i.v., observation time of 14 days; conditions: mouse, in vivo, iv, observation time of 14 days
Description: Additionally, it should be noted that at all dosage levels the test compounds were tolerated very well and produced no toxic side-effects.

SMILES | Duration of effective action ([1]; 0.1 mgm/kg i.v.) [min] | Duration of effective action ([1]; 0.3 mgm/kg i.v.) [min] | Duration of effective action ([1]; 1.0 mgm/kg i.v.) [min] | Duration of effective action ([1]; 3.0 mgm/kg i.d.) [min] | Duration of effective action ([1]; 10.0 mgm/kg i.v.) [min] | Duration of effective action ([1]; 30.0 mgm/kg i.d.) [min] | LD50 at 336 h [2] [mg/kg] | Duration of effective action ([1]; 2.0 mgm/kg i.v.) [min] | Duration of effective action ([1]; 3.0 mgm/kg i.v.) [min]
COc1ccc(CCN(C)CCCN2CCc3cc(OC)c(OC)cc3C2=O)cc1OC.Cl [A, 1-[6,7-dimethoxy-3,4-dihydro-2H-isoquinolin-1-one-2-yl]-3-[N-methyl-N-(2-(3,4-dimethoxy-phenyl)-ethyl)-amino] propane hydrochloride] | 30 | 30 | 50 | 60 | 70 | 60 | 53 |  | 
COc1ccc(CCNCCCN2CCc3cc(OC)c(OC)cc3C2=O)cc1OC.Cl [B, 1-[6,7-dimethoxy-3,4-dihydro-2H-isoquinolin-1-one-2-yl]-3-[N-(2-(3,4-dimethoxy-phenyl)-ethyl)-amino] propane hydrochloride] |  | 22 | 17 |  |  |  |  | 43 | 
COc1ccc(CCN(C)CCCN2CC(C)(C)c3cc(OC)c(OC)cc3C2=O)cc1OC.Cl [C, 1-[4,4-dimethyl-6,7-dimethoxy-3,4-dihydro-2H-isoquinolin-1-one-2-yl]-3-[N-methyl-N-(2-(3,4-dimethoxy-phenyl)-ethyl)-amino]-propane hydrochloride] |  | 8 | 11 |  |  |  |  |  | 18
COc1ccc(CCNCCCN2CC(C)(C)c3cc(OC)c(OC)cc3C2=O)cc1OC.Cl [D, 1-[4,4-dimethyl-6,7-dimethoxy-3,4-dihydro-2H-isoquinolin-1-one-2-yl]-3-[N-(2-(3,4-dimethoxy-phenyl)-ethyl)-amino]-propane hydrochloride] |  |  | 6 |  |  |  |  |  | 16
COc1ccc(CCN(C)CCCN2CCCc3cc(OC)c(OC)cc3C2=O)cc1OC.Cl [E, 1-[7,8-dimethoxy-1,2,3,4-tetrahydro-5H-2-benzazepin-1-one-2-yl]-3-[N-methyl-N-(2-(3,4-dimethoxy-phenyl)-ethyl)-amino]-propane hydrochloride] |  |  | 30 |  |  |  |  | 20 | 
